The source of these data is paper PMC6271697, “Anticancer Activities of Polyynes from the Root Bark of Oplopanax horridus and Their Acetylated Derivatives” (Molecules, 2014).

Common to all, as to assay type: cell-based, human
In test [1] the test system is A549 cells. Kind of test: MTT cell viability assay, A549 cells. Particulars: for IC50: MTT, 24 h incubation, read-out: IC50 A549. As for the experimental part: (§1) The human breast cancer cell lines MCF-7, MDA-MB-231, human hepatocellular liver cell line HepG2 and human lung carcinoma epithelial cells A549 were purchased from American Type Culture Collection (ATCC, Manassas, VA, USA). Normal human hepatic LO2 cells were obtained from the Institute of Cell Biology, Academic Sinica (Shanghai, China). The cells were grown in an atmosphere of 5% CO2 at 37 °C in RPMI 1640 medium supplemented with 10% fetal bovine serum, 100 U/mL penicillin and […] streptomycin.
(§2) The viability of cells was measured by a colorimetric MTT assay. Briefly, 1 × 10^4 cells/well in 96-well microplates were exposed to different concentration of polyynes and their acetylated derivatives respectively for 24 h incubation, following addition of 20 μL MTT solution (4 mg/mL) to each well for another 4 h incubation at 37 °C. Finally, the medium was removed and replaced with 100 μL dimethyl sulfoxide which was added to dissolve the dye crystal presented in cells. The absorbance was recorded at 570 nm using a microplate reader (1420 Multilabel counter victor^3, Perkin-Elmer, Waltham, MA, USA). The results were expressed as ratio of absorbance between treatments and control cells (solvent vehicle set at 100%). Four replicate wells were tested per assay which was repeated three times.
(Tetrazolium dyes change colour on reduction, which living cells bring about.)

In test [2] the test system is MCF-7 cells. Kind of test: MTT cell viability assay, MCF-7 cells. Particulars: MTT, 24 h incubation; read-out: IC50 MCF-7. Here is the method: as §1, §2
The test system of test [3] is HepG2 cells. Kind of test: MTT cell viability assay, HepG2 cells. Particulars: MTT, 24 h incubation; read-out: IC50 HepG2. As for the experimental part:
as §1, §2

In test [4] the test system is LO2 cells. Nature of the test: MTT cell viability assay, normal hepatic LO2 cells. To be noted: normal human hepatic cells, MTT, 24 h incubation; read-out: IC50 LO2. Here is the method: as §1, §2
In test [5] the test system is MDA-MB-231 cells. Nature of the test: MTT cell viability assay, MDA-MB-231 cells. To be noted: MTT, 24 h incubation; read-out: IC50 MDA-MB-231. Here is the method:
as §1, §2

For test [6], the system named is MDA-MB-231 cells. Nature of the test: Hoechst 33342 staining for apoptosis. To be noted: OHR-1 15 μM, OHR-2 5 μM, OHR-3 10 μM, OHR-5 15 μM; 12 h. Here is the method:
MDA-MB-231 cells were seeded in the flat-bottomed 6-well plates and treated with OHR-1, -2, -3 and -5. Cells treated with solvent vehicle served as controls. In 12 h after treatment, cells were fixed in 4% polyoxymethylene solution for 30 min and then washed with PBS. The fixed cells were incubated with Hoechst 33342 for 15 min at room temperature in the dark and then washed with PBS twice, which were finally observed under a fluorescence microscope (Convert Fluorescence Microsope Axiovert 200, HAL 100, HBO 100, Carl Zeiss MicroImaging Co., Ltd., Oberkochen, Germany) at a magnification of ×400.

Test [7] has as its system MDA-MB-231 cells. Nature of the test: JC-1 mitochondrial membrane potential. Particulars: high concentration (OHR-1 15 μM, OHR-2 5 μM, OHR-3 10 μM, OHR-5 15 μM), 24 h. As for the experimental part: The MDA-MB-231 cells were treated with OHR-1, -2, -3 and -5 for 24 h in a humidified atmosphere (37 °C with 5% CO2). The cells were collected and responded in 0.5 mL culture medium with JC-1 dye (1 μg/mL) for 20 min at 37 °C in dark. Fluorescence was monitored by both flow cytometry (BD Biosciences, San Jose, CA, USA) and fluorescence microscope. The Δψm were indicated by the rato of […] fluorescence intensity. The data were expressed as ratio of Δψm between treatments and control cells (solvent vehicle set at 100%).

Test [8] deals with MDA-MB-231 cells. Kind of test: Cell cycle analysis by PI staining and flow cytometry. Particulars: 24 h; for G2/M arrest rate at low concentration: OHR-1 7.5 μM, OHR-2 2.5 μM, OHR-3 5 μM, OHR-5 7.5 μM; for G2/M arrest rate at high concentration: OHR-1 15 μM, OHR-2 5 μM, OHR-3 10 μM, OHR-5 15 μM. Here is the method:
Cells were seeded in 6-well tissue culture plates and treated with DMSO control or different concentration of OHR-1, -2, -3 and -5 for 24 h. Then, the cells were harvested and fixed gently with cold 70% ethanol at −20 °C overnight. Finally, the cells were washed with PBS and re-suspended in 300 μL of propidium iodide (PI) stain solution (20 μg/mL PI and 8 μg/mL DNase-free RNase) for 20 min at room temperature in the dark. The cells were analyzed with a flow cytometry and Mod Fit LT 3.0 software (Variety Software House, Topsham, ME, USA). For each measurement, at least 20,000 cells were counted.
In general terms: Flow cytometry measures light scatter and fluorescence of single cells or particles in a stream.

Where “and” joins values, the source holds several entries; their conditions need not be identical. Equal entries are not always repeated.

Usually IC50 stands for the concentration needed to halve the response being measured. With “(3S,8S,Z)-3-Hydroxyheptadeca-1,9-dien-4,6-diyn-8-yl acetate [OHR-5]”, the IC50 in test [1] worked out at 30.1 ± 4.4 µM; in test [2], 30.6 ± 3.1 µM; in test [3], 43.7 ± 6.6 µM; in test [4], 31.1 ± 1.8 µM; in test [5], 13.9 ± 5.8 µM. In addition, the “induction of apoptosis (Hoechst staining)” value (shortened to “induction of apoptosis”) in test [6] is listed as “induce obvious apoptosis”. In addition, the “effect on mitochondrial membrane potential Δψm (JC-1)” value in test [7] was “decreasing the Δψm”. Further, the “G2/M arrest rate at low concentration” value in test [8] is on record as 33.2% ± 4.6%. In test [8], the “G2/M arrest rate at high concentration” value is recorded as 38.0% ± 1.7%.
For the substance “(3S,8S,Z)-Heptadeca-9-en-4,6-diyne-3,8-diyl diacetate [OHR-1]”, the IC50 in test [1] is above 300 µM; in test [2], above 300 µM; in test [3] it was 115 ± 17.1 µM; in test [4], above 300 µM; in test [5], 13.9 ± 3.4 µM. In addition, the “induction of apoptosis” value in test [6] was “induce obvious apoptosis”. The “effect on mitochondrial membrane potential Δψm (JC-1)” value in test [7] is given as “decreasing the Δψm”. The “G2/M arrest rate at low concentration” value in test [8] is 24.6% ± 3.6%. Moreover, the “G2/M arrest rate at high concentration” value in test [8] is 31.7% ± 3.2%.
For “(3S,8S,Z)-3-Hydroxyheptadeca-9-en-4,6-diyn-8-yl acetate [OHR-3]”, the IC50 in test [1] was 30.1 µM and 31.4 µM; in test [2] it was 25.8 ± 5.8 µM; in test [3] it was 31.5 ± 2.1 µM; in test [4] it was 31.5 ± 4 µM; in test [5], 6.6 ± 0.8 µM. Moreover, in test [1] (at 60 µM, p < 0.01), the “A549 cell growth inhibited” value is reported as 90.8%. The “induction of apoptosis” value in test [6] is given as “induce obvious apoptosis”. In test [7], the “effect on mitochondrial membrane potential Δψm (JC-1)” value is given as “decreasing the Δψm”. Further, in test [8], the “G2/M arrest rate at low concentration” value is 24.2% ± 2.9%. Further, the “G2/M arrest rate at high concentration” value in test [8] is recorded as 25.6% ± 7.5%.
With “(3S,8S,Z)-Heptadeca-1,9-dien-4,6-diyne-3,8-diyl diacetate [OHR-2]”, the IC50 in test [1] stood at 24.7 ± 5.6 µM; in test [2], 36.9 ± 4.8 µM; in test [3], 6.6 ± 1.5 µM; in test [4], 32.1 ± 9 µM; in test [5], 4.8 ± 0.5 µM. In addition, the “induction of apoptosis” value in test [6] is reported as “induce obvious apoptosis”. The “effect on mitochondrial membrane potential Δψm (JC-1)” value in test [7] is listed as “decreasing the Δψm”. Moreover, the “G2/M arrest rate at low concentration” value in test [8] is 22.6% ± 2.6%. In addition, the “G2/M arrest rate at high concentration” value in test [8] is given as 30.4% ± 3.1%.
